The results in this text go back to patent publication US20120115852A1, “HETEROCYCLIC COMPOUNDS AS AUTOTAXIN INHIBITORS” (Merck Patent Gesellschaft Mit Beschrankter Haftung, priority 2009, published 2012).

pIC50: −log10 of the molar value.

In this experiment the target is T1, recombinant autotaxin (Homo sapiens, UniProt Q13822).
T1 construct: made in house; host or cells: Hi5 insect cells (baculovirus)
The experiment in a line: Autotaxin test (enzyme test), Amplex Red fluorescence with LPC substrate. Format: biochemical. The following applies: autotaxin inhibition (enzyme test); for remaining activity at 10 µM: 10 μM compound, read-out: % Control at 10 μM. The gist of the method: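 Purified recombinant autotaxin (baculovirus Hi5-expressed) pre-incubated with compound 30 min at 22° C, then LPC (final 75 μM) added and reacted 90 min at 37° C in Tris pH 8 buffer with CaCl2. Choline released was coupled via alkaline phosphatase, choline oxidase and peroxidase to Amplex Red; resorufin fluorescence read in kinetic mode (ex 485/em 612 nm).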

`CC(C)(C)CC(=O)N1CCN2C(=O)c3cc(Br)ccc3NC(=O)C2C1` (stereo not drawn) [Compound A142]: the remaining activity at 10 µM was 85%.

For orientation: pIC50 means the IC50 on a negative log10 scale, so that one unit is a factor of ten. With `CC(C)(C)CC(=O)N1CCN2C(=O)c3cc(-c4ccc(Cl)cc4F)ccc3N(CCN3CCOCC3)C(=O)C2C1` (stereo not drawn) [Compound A143], the remaining activity at 10 µM is 3% and the negative logarithm of the IC50 (pIC50) is 6.00 to 7.00.

As for `CN1CCN(C(=O)CN2C(=O)C3CN(C(=O)CC(C)(C)C)CCN3C(=O)c3cc(-c4ccc(Cl)cc4F)ccc32)CC1` (stereo not drawn) [Compound A144], the remaining activity at 10 µM was determined as 11% and the pIC50 is below 6.00.

For the molecule `CC(C)(C)CC(=O)N1CCN2C(=O)c3cc(-c4ccc(Cl)cc4F)ccc3N(CC(N)=O)C(=O)C2C1` (stereo not drawn) [Compound A145], the remaining activity at 10 µM stood at 2% and the pIC50 is 6.00 to 7.00.

Regarding `CC(C)(C)CC(=O)N1CCN2C(=O)c3cc(-c4ccc(Cl)cc4F)ccc3N(CCC3CCNCC3)C(=O)C2C1` (stereo not drawn) [Compound A146], the remaining activity at 10 µM stood at 10% and the pIC50 is below 6.00.

Turning to `CC(C)(C)CC(=O)N1CCN2C(=O)c3cc(-c4ccc(Cl)cc4F)ccc3N(CC3CCNCC3)C(=O)C2C1` (stereo not drawn) [Compound A147], the remaining activity at 10 µM worked out at 62% and the negative logarithm of the IC50 (pIC50) was below 6.00.

Regarding `CC(C)(C)CC(=O)N1CCN2C(=O)c3cc(-c4ccc(Cl)cc4F)ccc3N(CCN3CCOCC3)C(=O)[C@H]2C1` [Compound A148], the remaining activity at 10 µM is 10% and the negative-log IC50 (pIC50) was below 6.00.

For the molecule `CN1CCN(C(=O)CN2C(=O)[C@H]3CN(C(=O)CC(C)(C)C)CCN3C(=O)c3cc(-c4ccc(Cl)cc4F)ccc32)CC1` [Compound A149], the remaining activity at 10 µM was determined as 15% and the pIC50 was below 6.00.

On to `CC(C)(C)CC(=O)N1CCN2C(=O)c3cc(-c4ccc(Cl)cc4F)ccc3N(CC(N)=O)C(=O)[C@H]2C1` [Compound A150], for which the remaining activity at 10 µM was determined as 3% and the pIC50 was 6.00 to 7.00.

Turning to `CN(C)CCN1C(=O)[C@H]2CN(C(=O)CC(C)(C)C)CCN2C(=O)c2cc(-c3ccc(Cl)cc3F)ccc21` [Compound A151], the remaining activity at 10 µM is 16% and the negative logarithm of the IC50 (pIC50) is below 6.00.

Consider `CC(C)(C)CC(=O)N1CCN2C(=O)c3cc(-c4ccc(Cl)cc4F)ccc3N(CCO)C(=O)[C@H]2C1` [Compound A152], for which the remaining activity at 10 µM turned out to be 3% and the pIC50 was 6.00 to 7.00.

`O=C([C@@H]1CCCN1C1CCNCC1)N1CCN2C(=O)c3cc(-c4ccc(Cl)cc4F)ccc3N(CCN3CCOCC3)C(=O)[C@H]2C1` [Compound A153]: the remaining activity at 10 µM was found to be 21% and the pIC50 was below 6.00.

Take `CN1CCN(C(=O)CN2C(=O)[C@H]3CN(C(=O)[C@@H]4CCCN4C4CCNCC4)CCN3C(=O)c3cc(-c4ccc(Cl)cc4F)ccc32)CC1` [Compound A154]: the remaining activity at 10 µM was found to be 27% and the negative logarithm of the IC50 (pIC50) is below 6.00.

Regarding `NC(=O)CN1C(=O)[C@H]2CN(C(=O)[C@@H]3CCCN3C3CCNCC3)CCN2C(=O)c2cc(-c3ccc(Cl)cc3F)ccc21` [Compound A155], the remaining activity at 10 µM came to 10% and the negative logarithm of the IC50 (pIC50) was 6.00 to 7.00.

As to `CN(C)CCN1C(=O)[C@H]2CN(C(=O)[C@@H]3CCCN3C3CCNCC3)CCN2C(=O)c2cc(-c3ccc(Cl)cc3F)ccc21` [Compound A156], the remaining activity at 10 µM was determined as 7% and the negative logarithm of the IC50 (pIC50) is 6.00 to 7.00.

For `CC(C)(C)CC(=O)N1CCN2C(=O)c3cc(-c4ccc(Cl)cc4F)ccc3N(CCC3CCNCC3)C(=O)[C@H]2C1` [Compound A157], the remaining activity at 10 µM is 2% and the pIC50 was 6.00 to 7.00.

Take `O=C([C@@H]1CCCN1C1CCNCC1)N1CCN2C(=O)c3cc(-c4ccc(Cl)cc4F)ccc3N(CCC3CCNCC3)C(=O)[C@H]2C1` [Compound A158]: the remaining activity at 10 µM amounted to 21% and the pIC50 is below 6.00.

For the molecule `O=C([C@@H]1CCCN1C1CCNCC1)N1CCN2C(=O)c3cc(-c4ccc(Cl)cc4F)ccc3N(CCO)C(=O)[C@H]2C1` [Compound A159], the remaining activity at 10 µM stood at 16% and the negative logarithm of the IC50 (pIC50) was below 6.00.

In the case of `CC(C)(C)CC(=O)N1CCN2C(=O)c3cc(-c4ccc(Cl)cc4F)ccc3N(CCO)C(=O)[C@@H]2C1` [Compound A160], the remaining activity at 10 µM worked out at 2% and the negative logarithm of the IC50 (pIC50) was 6.00 to 7.00.

As to `CC(C)(C)CC(=O)N1CCN2C(=O)c3cc(-c4ccc(Cl)cc4F)ccc3N(CCN3CCOCC3)C(=O)[C@@H]2C1` [Compound A161], the remaining activity at 10 µM came out at 3% and the negative logarithm of the IC50 (pIC50) is 6.00 to 7.00.

With `CN1CCN(C(=O)CN2C(=O)[C@@H]3CN(C(=O)CC(C)(C)C)CCN3C(=O)c3cc(-c4ccc(Cl)cc4F)ccc32)CC1` [Compound A162], the remaining activity at 10 µM came to 30% and the negative-log IC50 (pIC50) was below 6.00.

Consider `CN(C)CCN1C(=O)[C@@H]2CN(C(=O)CC(C)(C)C)CCN2C(=O)c2cc(-c3ccc(Cl)cc3F)ccc21` [Compound A163], for which the remaining activity at 10 µM came out at 10% and the negative logarithm of the IC50 (pIC50) is below 6.00.

With `O=C([C@@H]1CCCN1C1CCNCC1)N1CCN2C(=O)c3cc(-c4ccc(Cl)cc4F)ccc3N(CCC3CCNCC3)C(=O)[C@@H]2C1` [Compound A164], the remaining activity at 10 µM stood at 12% and the pIC50 was below 6.00.

Consider `CC(C)(C)CC(=O)N1CCN2C(=O)c3cc(-c4ccc(Cl)cc4)ccc3N(CCO)C(=O)C2C1` (stereo not drawn) [Compound A165], for which the remaining activity at 10 µM is -20% and the negative logarithm of the IC50 (pIC50) is 6.00 to 7.00.

On to `CN1CCC(N2C(=O)C3CN(C(=O)CC(C)(C)C)CCN3C(=O)c3cc(-c4ccc(Cl)cc4F)ccc32)CC1` (stereo not drawn) [Compound A166], for which the remaining activity at 10 µM came to 10% and the negative-log IC50 (pIC50) is below 6.00.

Regarding `O=C1Nc2ccc(-c3ccc(Cl)cc3)cc2C(=O)N2CCN(C(=O)Oc3ccccc3)CC12` (stereo not drawn) [Compound A167], the remaining activity at 10 µM amounted to 26% and the pIC50 is below 6.00.

On to `CC(C)(C)COC(=O)N1CCN2C(=O)c3cc(-c4ccc(Cl)cc4)ccc3NC(=O)C2C1` (stereo not drawn) [Compound A168], for which the remaining activity at 10 µM is 52% and the pIC50 is below 6.00.

For `CC(C)CS(=O)(=O)N1CCN2C(=O)c3cc(-c4ccc(Cl)cc4F)ccc3NC(=O)[C@H]2C1` [Compound A173], the remaining activity at 10 µM is 1% and the negative-log IC50 (pIC50) is 6.00 to 7.00.

Turning to `O=C1Nc2ccc(-c3ccc(Cl)cc3F)cc2C(=O)N2CCN(S(=O)(=O)CC3CCCCC3)C[C@H]12` [Compound A174], the remaining activity at 10 µM came out at 21% and the pIC50 is 6.00 to 7.00.

Consider `O=C1Nc2ccc(-c3ccc(Cl)cc3)cc2CN2CCN(C(=O)[C@@H]3CCCN3C3CCNCC3)CC12` (stereo partly drawn) [Compound A176], for which the remaining activity at 10 µM stood at 63% and the negative-log IC50 (pIC50) was below 6.00.

On to `CS(=O)(=O)N1CCN2C(=O)c3cc(-c4ccccc4F)ccc3NC(=O)[C@H]2C1` [Compound B1], for which the remaining activity at 10 µM amounted to 75%.

Turning to `COc1ccc(-c2ccc3c(c2)C(=O)N2CCN(C(=O)[C@@H](O)c4ccccc4)C[C@@H]2C(=O)N3)cc1` [Compound B2], the remaining activity at 10 µM is 84%.

Turning to `O=C1Nc2ccc(-c3ccccc3F)cc2C(=O)N2CCN(C(=O)[C@@H](O)c3ccccc3)C[C@H]12` [Compound B3], the remaining activity at 10 µM was 47%.

For the molecule `O=C(O)CCC(=O)N1CCN2C(=O)c3cc(-c4ccc(Cl)cc4)ccc3NC(=O)[C@@H]2C1` [Compound B4], the remaining activity at 10 µM was determined as 71%.

Turning to `O=C1Nc2ccc(-c3ccc(Cl)cc3)cc2C(=O)N2CCN(C(=O)C3CCNCC3)C[C@H]12` [Compound B5], the remaining activity at 10 µM was 64%.

With `O=C1Nc2ccc(-c3ccccc3)cc2C(=O)N2CCN(C(=O)C3CCCC3)C[C@@H]12` [Compound B6], the remaining activity at 10 µM turned out to be 85%.

As for `O=C(O)CCCC(=O)N1CCN2C(=O)c3cc(-c4ccco4)ccc3NC(=O)[C@H]2C1` [Compound B7], the remaining activity at 10 µM came to 70%.

For `CC(C)(CC(=O)O)CC(=O)N1CCN2C(=O)c3cc(-c4ccc(Cl)cc4)ccc3NC(=O)[C@H]2C1` [Compound B8], the remaining activity at 10 µM turned out to be 70%.

In the case of `O=C1Nc2ccc(-c3ccc4c(c3)OCO4)cc2C(=O)N2CCN(C(=O)[C@@H]3CSCN3)C[C@H]12` [Compound B9], the remaining activity at 10 µM is 74%.

Regarding `O=C1Nc2ccc(-c3ccccc3F)cc2C(=O)N2CCN(C(=O)C3CCCC3)C[C@@H]12` [Compound B10], the remaining activity at 10 µM stood at 76%.

With `O=C1Nc2ccc(-c3cccc(C(F)(F)F)c3)cc2C(=O)N2CCN(C(=O)c3ccccc3)C[C@H]12` [Compound B11], the remaining activity at 10 µM amounted to 85%.

Turning to `O=C1Nc2ccc(-c3ccc4c(c3)OCO4)cc2C(=O)N2CCN(C(=O)c3cccnc3)C[C@H]12` [Compound B12], the remaining activity at 10 µM stood at 84%.

In the case of `O=C1Nc2ccc(-c3ccccc3)cc2C(=O)N2CCN(C(=O)C3CCCCC3)C[C@H]12` [Compound B13], the remaining activity at 10 µM was 53%.

As to `O=C1Nc2ccc(-c3ccc(Cl)cc3)cc2C(=O)N2CCN(C(=O)CO)C[C@H]12` [Compound B14], the remaining activity at 10 µM was found to be 80%.

With `O=C1Nc2ccc(-c3ccccc3)cc2C(=O)N2CCN(C(=O)c3cccs3)C[C@H]12` [Compound B15], the remaining activity at 10 µM stood at 79%.

Consider `O=C1Nc2ccc(-c3ccco3)cc2C(=O)N2CCN(C(=O)C3CC3)C[C@H]12` [Compound B16], for which the remaining activity at 10 µM is 82%.

For `O=C1Nc2ccc(-c3ccc(Cl)cc3)cc2C(=O)N2CCN(C(=O)C3CCCCC3)C[C@H]12` [Compound B17], the remaining activity at 10 µM was determined as 26% and the pIC50 was below 6.00.

Regarding `O=C1Nc2ccc(-c3ccccc3)cc2C(=O)N2CCN(C(=O)[C@@H]3CSCN3)C[C@H]12` [Compound B18], the remaining activity at 10 µM is 56%.

Take `O=C1Nc2ccc(-c3ccccc3F)cc2C(=O)N2CCN(C(=O)C3CCCCC3)C[C@H]12` [Compound B19]: the remaining activity at 10 µM came out at 41% and the pIC50 was below 6.00.

In the case of `O=C1Nc2ccc(-c3ccc(Cl)cc3)cc2C(=O)N2CCN(C(=O)c3cccs3)C[C@H]12` [Compound B20], the remaining activity at 10 µM was determined as 71%.
